# Experimental data as given in the supplement of paper PMC10307832.
# Columns and labels:
# Test in all cases: relative viability (nuclei count vs DMSO), 5 days (fraction); higher = more cells survive
# AZD8055 + Alpelisib = compound: COc1ccc(-c2ccc3c(N4CCOC[C@@H]4C)nc(N4CCOC[C@@H]4C)nc3n2)cc1CO [AZD8055] + Cc1nc(NC(=O)N2CCC[C@H]2C(N)=O)sc1-c1ccnc(C(C)(C)C(F)(F)F)c1 [Alpelisib] (partner 2 µM)
# Outline: (§1)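 Each reported value is a median over duplicate plates. It expresses relative viability: treated-well nuclei count divided by vehicle-well nuclei count. Lung cancer cell lines in 1536-well plates were dosed by pin tool a day after seeding, alone with one drug or with a fixed anchor-drug dose plus five library-drug doses (not always all listed) in √10 steps, and nuclei were counted after 5 days.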
# AZD8055 + Luminespib = compound: COc1ccc(-c2ccc3c(N4CCOC[C@@H]4C)nc(N4CCOC[C@@H]4C)nc3n2)cc1CO [AZD8055] + CCNC(=O)c1noc(-c2cc(C(C)C)c(O)cc2O)c1-c1ccc(CN2CCOCC2)cc1 [Luminespib] (partner 0.01 µM)
# Outline: as §1
# AZD8055 + Tozasertib = compound: COc1ccc(-c2ccc3c(N4CCOC[C@@H]4C)nc(N4CCOC[C@@H]4C)nc3n2)cc1CO [AZD8055] + Cc1cc(Nc2cc(N3CCN(C)CC3)nc(Sc3ccc(NC(=O)C4CC4)cc3)n2)n[nH]1 [Tozasertib] (partner 0.1 µM)
# Outline: as §1
# AZD8055 + Dasatinib = compound: COc1ccc(-c2ccc3c(N4CCOC[C@@H]4C)nc(N4CCOC[C@@H]4C)nc3n2)cc1CO [AZD8055] + Cc1nc(Nc2ncc(C(=O)Nc3c(C)cccc3Cl)s2)cc(N2CCN(CCO)CC2)n1 [Dasatinib] (partner 0.075 µM)
# Outline: as §1
Cell Line,relative viability (AZD8055 + Alpelisib; first compound 0.01 µM),relative viability (AZD8055 + Alpelisib; first compound 0.03162 µM),relative viability (AZD8055 + Alpelisib; first compound 0.1 µM),relative viability (AZD8055 + Alpelisib; first compound 0.3162 µM),relative viability (AZD8055 + Alpelisib; first compound 1 µM),relative viability (AZD8055 + Luminespib; first compound 0.01 µM),relative viability (AZD8055 + Luminespib; first compound 0.03162 µM),relative viability (AZD8055 + Luminespib; first compound 0.1 µM),relative viability (AZD8055 + Luminespib; first compound 0.3162 µM),relative viability (AZD8055 + Luminespib; first compound 1 µM),relative viability (AZD8055 + Tozasertib; first compound 0.01 µM),relative viability (AZD8055 + Tozasertib; first compound 0.03162 µM),relative viability (AZD8055 + Tozasertib; first compound 0.1 µM),relative viability (AZD8055 + Tozasertib; first compound 0.3162 µM),relative viability (AZD8055 + Tozasertib; first compound 1 µM),relative viability (AZD8055 + Dasatinib; first compound 0.01 µM),relative viability (AZD8055 + Dasatinib; first compound 0.03162 µM),relative viability (AZD8055 + Dasatinib; first compound 0.1 µM),relative viability (AZD8055 + Dasatinib; first compound 0.3162 µM),relative viability (AZD8055 + Dasatinib; first compound 1 µM)
HCC-15,0.86,0.769,0.639,0.366,0.282,0.304,0.39,0.262,0.208,0.242,0.437,0.379,0.415,0.296,0.222,0.615,0.541,0.477,0.273,0.174
HCC-44,0.573,0.507,0.417,0.271,0.295,1.03,0.974,0.804,0.439,0.429,1.03,0.914,0.626,0.543,0.613,,,,,
HCC-78,0.303,0.204,0.181,0.217,0.221,,,,,,0.475,0.404,0.341,0.299,0.232,0.328,0.306,0.222,0.233,0.247
HCC-366,0.479,0.243,0.169,0.0661,0.07,,,,,,0.14,0.0951,0.0932,0.0432,0.0587,0.719,0.401,0.241,0.0939,0.0948
HCC-827,0.974,0.863,0.736,0.305,0.254,0.6,0.336,0.308,0.319,0.13,0.449,0.448,0.447,0.235,0.295,0.334,0.273,0.258,0.241,0.167
HOP-62,1.26,1.18,0.667,0.434,0.26,1.08,0.842,0.888,0.634,0.482,0.414,0.46,0.401,0.292,0.273,0.741,0.554,0.556,0.272,0.171
IA-LM,0.749,0.485,0.212,0.0977,0.0895,,,,,,,,,,,,,,,
LC-2-ad,0.841,0.827,0.697,0.42,0.402,1.25,0.969,1.03,0.537,0.548,0.491,0.564,0.366,0.339,0.377,0.559,0.683,0.451,0.221,0.321
LCLC-97TM1,0.233,0.179,0.135,0.14,0.135,0.706,0.531,0.365,0.216,0.241,0.207,0.157,0.128,0.118,0.137,0.873,0.748,0.761,0.393,0.445
LCLC-103H,0.956,0.88,0.774,0.538,0.422,0.951,0.762,0.793,0.414,0.271,0.493,0.494,0.399,0.367,0.25,0.412,0.315,0.379,0.2,0.211
NCI-H522,,,,,,1.19,0.994,0.744,0.581,0.553,0.571,0.544,0.421,0.421,0.425,0.864,0.831,0.907,0.625,0.535
NCI-H1563,0.82,0.61,0.603,0.51,0.673,0.594,0.536,0.541,0.496,0.49,,,,,,0.458,0.458,0.443,0.405,0.384
NCI-H1648,,,,,,,,,,,0.461,0.702,0.34,0.232,0.226,,,,,
NCI-H1650,,,,,,0.204,0.196,0.206,0.203,0.253,0.366,0.446,0.422,0.534,0.252,0.317,0.302,0.292,0.19,0.265
NCI-H1703,0.328,0.297,0.237,0.219,0.318,,,,,,,,,,,,,,,
NCI-H1792,0.447,0.482,0.361,0.131,0.108,0.38,0.415,0.218,0.295,0.127,,,,,,0.844,0.667,0.583,0.321,0.237
NCI-H2342,,,,,,0.579,0.535,0.599,0.419,0.424,0.477,0.423,0.395,0.345,0.371,0.316,0.288,0.268,0.293,0.304
SW 900,,,,,,0.172,0.182,0.17,0.177,0.16,0.567,0.747,0.425,0.285,0.34,0.622,0.691,0.535,0.177,0.184
